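How tested: cells in 96-well plates exposed to compound for 48 hours at five concentrations. Here, GI50 denotes the concentration required for 50% inhibition of growth. At the TGI there is no net growth.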

Some test systems named below: ACHN renal; RXF 393 renal; OVCAR-3 ovarian; TK-10 renal; SF-295 CNS; UO-31 renal; MOLT-4 leukemia; CAKI-1 renal; IGROV1 ovarian; 786-0 renal.
Test in all cases: NCI-60 cell line screen, 48 h

Take `COc1ccccc1/C=C/C(=O)c1sc(-c2cccnc2)nc1C`: the TGI in the assay with ACHN renal, in the assay on RXF 393 renal, with OVCAR-3 ovarian, in the assay with TK-10 renal, with SF-295 CNS and in the assay with UO-31 renal was more than 100 µM in each case. For the same compound, the TGI with MOLT-4 leukemia, in the assay on CAKI-1 renal, in the assay with IGROV1 ovarian and in the assay with 786-0 renal was more than 100 µM each time.

As for `COc1ccc(-c2cc(-c3ccc(Nc4nc(Nc5ccc(Cl)cc5)nc(Nc5ccc(Cl)cc5)n4)cc3)no2)cc1`, the GI50 is 27.6 µM with ACHN renal; 3.67 µM in the assay on RXF 393 renal; 11.2 µM in the assay with OVCAR-3 ovarian; 20.4 µM in the assay on TK-10 renal; 11.4 µM in the assay on SF-295 CNS; 5.36 µM with UO-31 renal. Further, the GI50 in the assay with MOLT-4 leukemia was 1.39 µM; with CAKI-1 renal, 15.5 µM; with IGROV1 ovarian, 6.3 µM; in the assay on 786-0 renal, 5.42 µM. Also, the TGI in the assay with ACHN renal is more than 100 µM; in the assay on RXF 393 renal, 20.3 µM; with OVCAR-3 ovarian it was 38.9 µM; with TK-10 renal it was 72.7 µM; with SF-295 CNS it was 39.5 µM; in the assay with UO-31 renal, 35.2 µM. The TGI came to 5.44 µM in the assay with MOLT-4 leukemia, 62.3 µM in the assay with CAKI-1 renal, 42.8 µM in the assay with IGROV1 ovarian and 25.5 µM in the assay with 786-0 renal.

In the case of `O=C1C2CC3C(CC2C(=O)[N]1[Sn]([c]1ccccc1)([c]1ccccc1)[c]1ccccc1)C1(Cl)C(Cl)=C(Cl)C3(Cl)C1(Cl)Cl` (configuration not stated), the GI50 is 0.112 µM in the assay with ACHN renal; 0.0863 µM in the assay with RXF 393 renal; 0.0964 µM in the assay with OVCAR-3 ovarian; 0.145 µM in the assay on TK-10 renal; 0.212 µM in the assay on SF-295 CNS; 0.0743 µM with UO-31 renal. Further, the GI50 was 0.0827 µM in the assay with MOLT-4 leukemia, 0.12 µM with CAKI-1 renal, 0.115 µM with IGROV1 ovarian and 0.157 µM in the assay with 786-0 renal. Besides, the TGI was found to be 0.243 µM with ACHN renal; 0.26 µM with RXF 393 renal; 0.222 µM in the assay on OVCAR-3 ovarian; 0.288 µM in the assay on TK-10 renal; 0.455 µM with SF-295 CNS; 0.212 µM with UO-31 renal. Besides, the TGI in the assay on MOLT-4 leukemia came out at 0.546 µM; with CAKI-1 renal it was 0.275 µM; with IGROV1 ovarian, 0.334 µM; in the assay with 786-0 renal, 0.336 µM.

For `COC(=O)C1=CC(O)CCC1c1ccc(OC)cc1` (configuration not stated), the TGI in the assay with ACHN renal, with RXF 393 renal, in the assay on OVCAR-3 ovarian, with TK-10 renal, in the assay on SF-295 CNS and with UO-31 renal was more than 100 µM throughout. Further, the TGI with MOLT-4 leukemia, in the assay on CAKI-1 renal, with IGROV1 ovarian and in the assay with 786-0 renal was more than 100 µM in each case.

As to `C[C@H]1CCC/C=C/[C@@H]2C[C@H](O)C[C@H]2[C@H](O)[C@H](S(=O)c2ccc(O)cc2)CC(=O)O1` (some centres not stated), the GI50 in the assay on ACHN renal is 0.0654 µM; in the assay with RXF 393 renal, less than 0.0106 µM; in the assay on OVCAR-3 ovarian, 0.021 µM; in the assay with TK-10 renal, 0.0392 µM; in the assay on SF-295 CNS it was 0.0698 µM; with UO-31 renal it was 0.0205 µM. Also, the GI50 is less than 0.0212 µM in the assay with MOLT-4 leukemia, 0.114 µM in the assay on CAKI-1 renal, 0.147 µM in the assay with IGROV1 ovarian and 0.0251 µM in the assay on 786-0 renal. The TGI is 0.41 µM in the assay on ACHN renal; 0.061 µM in the assay with RXF 393 renal; 1.02 µM with OVCAR-3 ovarian; 2.18 µM in the assay on TK-10 renal; more than 100 µM in the assay on SF-295 CNS; 0.519 µM with UO-31 renal. Further, the TGI with 786-0 renal stood at 0.0793 µM.

Take `Cc1cc(NC(=O)c2ccc(NS(=O)(=O)CCO)cc2N2CCC3(CC2)CC3)nc(N2CCC(F)(F)CC2)n1`: the GI50 in the assay on ACHN renal is 13.5 µM; with RXF 393 renal it was 0.26 µM; with OVCAR-3 ovarian it was 0.0365 µM; in the assay on TK-10 renal, 17.7 µM; in the assay with SF-295 CNS, 12.3 µM; with UO-31 renal, 11.4 µM. Further, the GI50 with MOLT-4 leukemia is 12.1 µM; in the assay with CAKI-1 renal, 10.9 µM; with IGROV1 ovarian, 16 µM; in the assay on 786-0 renal, 14.9 µM. The TGI in the assay with ACHN renal was 26.4 µM; in the assay on RXF 393 renal, 6.58 µM; with OVCAR-3 ovarian, 2.49 µM; in the assay with TK-10 renal, 32.6 µM; in the assay with SF-295 CNS, 27.3 µM; in the assay with UO-31 renal, 23.8 µM. Besides, the TGI with MOLT-4 leukemia turned out to be 33.1 µM; in the assay on CAKI-1 renal it was 23.2 µM; with IGROV1 ovarian it was 30.6 µM; with 786-0 renal, 30.6 µM.

For the compound `C=C(C)C1CC=C(C(=O)O)CC1` (configuration not stated), the TGI in the assay with ACHN renal was more than 5000 µM; in the assay with RXF 393 renal it was 3110 µM; in the assay on OVCAR-3 ovarian, 1660 µM; in the assay with TK-10 renal, more than 5000 µM; in the assay on SF-295 CNS, more than 5000 µM; with UO-31 renal, 4030 µM. Moreover, the TGI with MOLT-4 leukemia is more than 5000 µM; in the assay on CAKI-1 renal, 4080 µM; in the assay with IGROV1 ovarian it was 1480 µM; in the assay on 786-0 renal, 4700 µM.

With `COc1cc(N2CCC(N3CCN(C)CC3)CC2)ccc1Nc1ncc(Cl)c(Nc2ccccc2P(C)(C)=O)n1`, the GI50 is 1.12 µM with ACHN renal; 0.642 µM with RXF 393 renal; 2.15 µM in the assay on OVCAR-3 ovarian; 0.296 µM in the assay with TK-10 renal; 2.85 µM in the assay with SF-295 CNS; 0.734 µM in the assay with UO-31 renal. Further, the GI50 in the assay on MOLT-4 leukemia was 4.58 µM; in the assay on CAKI-1 renal it was 1.99 µM; in the assay with IGROV1 ovarian, 0.216 µM; in the assay on 786-0 renal, 1.12 µM. Further, the TGI is 9.65 µM in the assay on ACHN renal; 2.4 µM in the assay on RXF 393 renal; 38.2 µM in the assay with OVCAR-3 ovarian; 3.09 µM in the assay on TK-10 renal; more than 100 µM in the assay with SF-295 CNS; 2.7 µM with UO-31 renal. Moreover, the TGI was more than 100 µM in the assay with MOLT-4 leukemia, 9.58 µM with CAKI-1 renal, 0.784 µM in the assay on IGROV1 ovarian and 7.59 µM in the assay on 786-0 renal.

With `COc1ccc2cc(C(=O)c3ccccc3C(=O)O)ccc2c1`, the TGI in the assay with ACHN renal, in the assay with RXF 393 renal, in the assay on OVCAR-3 ovarian, in the assay with TK-10 renal, in the assay on SF-295 CNS and in the assay on UO-31 renal was more than 100 µM each time. The TGI with MOLT-4 leukemia, in the assay with CAKI-1 renal, in the assay on IGROV1 ovarian and in the assay on 786-0 renal was more than 100 µM each time.

(Values after PubChem BioAssay (NCI).)
